test: In vitro inhibitory activity against [3H]DTG binding to Sigma opioid receptor in guinea pig brain membrane homogenates

SMILES	IC50 [nM]
Cc1ccccc1NC(N)=NC1CC2CCC1C2 (stereo not given)	6
NC(=Nc1ccccc1I)NC12CC3CC(CC(C3)C1)C2	6
Cc1ccccc1N=C(N)NC1CCCCC1	12
Cc1cc([N+](=O)[O-])ccc1NC(N)=Nc1cccc(O)c1	118
N=C(NCc1ccccc1)NCc1ccccc1	90
NC(=NC1CC2CCC1C2)Nc1ccccc1I (stereo not given)	4
Cc1cc([N+](=O)[O-])ccc1/N=C(/N)Nc1ccc([N+](=O)[O-])cc1C	760
NC(=Nc1ccc(Br)cc1)Nc1ccc(Br)cc1	540
Cc1cc([N+](=O)[O-])ccc1N=C(N)Nc1ccccc1C	37
Cc1ccccc1N=C(N)Nc1cccc(O)c1	207

From BindingDB's records for doi:10.1021/jm00171a016 (University of Oregon, 1990)
